# Assay results taken from patent publication US10131652B2, “Pyrimidinyloxy benzene derivatives as herbicides” (E. I. DU PONT DE NEMOURS AND COMPANY, priority 2014, dated 2018).
# Like-named read-outs stand apart in the source and are kept apart here.
# Experiments:
# Assay in all cases: Test F pre-/postemergence plant response
# Assay type in all cases: in vivo
# [1] = system: Brazilian crabgrass (Digitaria horizontalis); conditions: Digitaria horizontalis, scale 0 to 100, read-out: Plant response rating, Crabgrass, Brazil
# Method in brief: (§1)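 Two application timings were run side by side: soil surface treatment of freshly planted seed in silt loam, and foliar treatment of seedlings 2 to 18 cm high. Plants stayed in the greenhouse 14 to 21 days before visual 0–100 injury scoring against controls.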
# [2] = system: Italian ryegrass (Lolium multiflorum); conditions: Lolium multiflorum, scale 0 to 100, read-out: Plant response rating, Ryegrass, Italian; for pest or weed control at 16 g/ha: 16 g ai/ha; for pest or weed control at 31 g/ha: 31 g ai/ha; for pest or weed control at 125 g/ha: 125 g ai/ha
# Method in brief: as §1
# [3] = system: arrowleaf sida (Sida rhombifolia); conditions: Sida rhombifolia, scale 0 to 100, read-out: Plant response rating, Arrowleaf Sida
# Method in brief: as §1
# [4] = system: corn (Zea mays); conditions: Zea mays, scale 0 to 100
# Method in brief: as §1
# [5] = system: fall panicum (Panicum dichotomiflorum); conditions: Panicum dichotomiflorum, scale 0 to 100, read-out: Plant response rating, Panicum, Fall
# Method in brief: as §1
# [6] = system: goosegrass (Eleusine indica); conditions: Eleusine indica, pre-emergence, scale 0 to 100, read-out: Plant response rating, Goosegrass
# Method in brief: as §1
# [7] = system: green foxtail (Setaria viridis); conditions: Setaria viridis, pre-emergence, Preemergence, scale 0 to 100, read-out: Plant response rating, Foxtail, Green
# Method in brief: as §1
# [8] = system: kochia (Kochia scoparia); conditions: Bassia scoparia, scale 0 to 100, read-out: Plant response rating, Kochia; for pest or weed control at 16 g/ha: 16 g ai/ha; for pest or weed control at 31 g/ha: 31 g ai/ha; for pest or weed control at 125 g/ha: 125 g ai/ha
# Method in brief: as §1
# [9] = system: lambsquarters (Chenopodium album); conditions: Chenopodium album, pre-emergence, Preemergence, scale 0 to 100, read-out: Plant response rating, Lambsquarters
# Method in brief: as §1
# [10] = system: large (Lg) crabgrass (Digitaria sanguinalis); conditions: Digitaria sanguinalis, pre-emergence, scale 0 to 100, read-out: Plant response rating, Crabgrass, Large
# Method in brief: as §1
# [11] = system: nightshade (eastern black nightshade, Solanum ptycanthum); conditions: Solanum, pre-emergence, scale 0 to 100, read-out: Plant response rating, Nightshade
# Method in brief: as §1
# [12] = system: palmer pigweed (Amaranthus palmeri); conditions: Amaranthus palmeri, scale 0 to 100, read-out: Plant response rating, Pigweed, Palmer
# Method in brief: as §1
# [13] = system: sandbur (southern sandbur, Cenchrus echinatus); conditions: Cenchrus echinatus, scale 0 to 100, read-out: Plant response rating, Sandbur
# Method in brief: as §1
# [14] = system: soybean (Glycine max); conditions: Glycine max, scale 0 to 100, read-out: Plant response rating, Soybean
# Method in brief: as §1
# [15] = system: surinam grass (Brachiaria decumbens); conditions: Urochloa decumbens, pre-emergence, scale 0 to 100, read-out: Plant response rating, Surinam Grass
# Method in brief: as §1
# [16] = system: wild poinsettia (Euphorbia heterophylla); conditions: Euphorbia heterophylla, scale 0 to 100, read-out: Plant response rating, Poinsettia, Wild
# Method in brief: as §1
# [17] = post-emergence, 16 g ai/ha Postemergence
# [18] = post-emergence, 31 g ai/ha Postemergence
# [19] = post-emergence, 62 g ai/ha Postemergence
# [20] = post-emergence, 125 g ai/ha Postemergence
# [21] = pre-emergence, 16 g ai/ha Preemergence
# [22] = pre-emergence, 31 g ai/ha Preemergence
# [23] = pre-emergence, 62 g ai/ha Preemergence
# [24] = pre-emergence, 125 g ai/ha Preemergence
# [25] = post-emergence, 62 g ai/ha, Postemergence
smiles,measurement,setting,value
"Fc1cccc(Oc2ncc(Cl)cn2)c1-c1cc(C(F)F)no1 [Compound 144, 5-chloro-2-[2-[3-(difluoromethyl)-5-isoxazolyl]-3-fluorophenoxy]pyrimidine]",pest or weed control at 16 g/ha,[1]; [17],40%
same,pest or weed control at 31 g/ha,[1]; [18],50%
same,pest or weed control at 62 g/ha,[1]; [19],40%
same,pest or weed control at 125 g/ha,[1]; [20],55%
same,pest or weed control at 16 g/ha,[1]; [21],75%
same,pest or weed control at 31 g/ha,[1]; [22],95%
same,pest or weed control at 62 g/ha,[1]; [23],98%
same,pest or weed control at 125 g/ha,[1]; [24],100%
same,pest or weed control at 16 g/ha,"[2]; post-emergence, Postemergence",10%
same,pest or weed control at 31 g/ha,"[2]; post-emergence, Postemergence",20%
same,pest or weed control at 62 g/ha,[2]; [25],20%
same,pest or weed control at 125 g/ha,"[2]; post-emergence, Postemergence",40%
same,pest or weed control at 16 g/ha,"[2]; pre-emergence, Preemergence",0%
same,pest or weed control at 31 g/ha,"[2]; pre-emergence, Preemergence",0%
same,pest or weed control at 125 g/ha,"[2]; pre-emergence, Preemergence",100%
same,pest or weed control at 62 g/ha,"[2]; pre-emergence, Preemergence",40%
same,pest or weed control at 16 g/ha,[3]; [17],100%
same,pest or weed control at 31 g/ha,[3]; [18],100%
same,pest or weed control at 62 g/ha,[3]; [19],100%
same,pest or weed control at 125 g/ha,[3]; [20],100%
same,pest or weed control at 16 g/ha,[3]; [21],95%
same,pest or weed control at 31 g/ha,[3]; [22],100%
same,pest or weed control at 62 g/ha,[3]; [23],100%
same,pest or weed control at 125 g/ha,[3]; [24],100%
same,"Corn plant response rating (crop injury, 0 = no effect, 100 = complete kill) at 16 g/ha",[4]; [17],10%
same,"Corn plant response rating (crop injury, 0 = no effect, 100 = complete kill) at 31 g/ha",[4]; [18],5%
same,"Corn plant response rating (crop injury, 0 = no effect, 100 = complete kill) at 62 g/ha",[4]; [19],10%
same,"Corn plant response rating (crop injury, 0 = no effect, 100 = complete kill) at 125 g/ha",[4]; [20],10%
same,"Corn plant response rating (crop injury, 0 = no effect, 100 = complete kill) at 16 g/ha",[4]; [21],0%
same,"Corn plant response rating (crop injury, 0 = no effect, 100 = complete kill) at 31 g/ha",[4]; [22],0%
same,"Corn plant response rating (crop injury, 0 = no effect, 100 = complete kill) at 62 g/ha",[4]; [23],40%
same,"Corn plant response rating (crop injury, 0 = no effect, 100 = complete kill) at 125 g/ha",[4]; [24],35%
same,pest or weed control at 16 g/ha,[5]; [17],25%
same,pest or weed control at 31 g/ha,[5]; [18],30%
same,pest or weed control at 62 g/ha,[5]; [19],35%
same,pest or weed control at 125 g/ha,[5]; [20],60%
same,pest or weed control at 16 g/ha,[5]; [21],95%
same,pest or weed control at 31 g/ha,[5]; [22],100%
same,pest or weed control at 125 g/ha,[5]; [24],100%
same,pest or weed control at 62 g/ha,"[5]; pre-emergence, Preemergence",100%
same,pest or weed control at 16 g/ha,[6]; 16 g ai/ha Preemergence,75%
same,pest or weed control at 31 g/ha,[6]; 31 g ai/ha Preemergence,60%
same,pest or weed control at 125 g/ha,[6]; 125 g ai/ha Preemergence,100%
same,pest or weed control at 62 g/ha,[6]; Preemergence,95%
same,pest or weed control at 16 g/ha,[7]; 16 g ai/ha,25%
same,pest or weed control at 31 g/ha,[7]; 31 g ai/ha,95%
same,pest or weed control at 125 g/ha,[7]; 125 g ai/ha,100%
same,pest or weed control at 62 g/ha,[7],98%
same,pest or weed control at 16 g/ha,"[8]; post-emergence, Postemergence",95%
same,pest or weed control at 31 g/ha,"[8]; post-emergence, Postemergence",95%
same,pest or weed control at 62 g/ha,[8]; [25],95%
same,pest or weed control at 125 g/ha,"[8]; post-emergence, Postemergence",95%
same,pest or weed control at 16 g/ha,"[8]; pre-emergence, Preemergence",98%
same,pest or weed control at 31 g/ha,"[8]; pre-emergence, Preemergence",100%
same,pest or weed control at 125 g/ha,"[8]; pre-emergence, Preemergence",100%
same,pest or weed control at 62 g/ha,"[8]; pre-emergence, Preemergence",100%
same,pest or weed control at 16 g/ha,[9]; 16 g ai/ha,100%
same,pest or weed control at 31 g/ha,[9]; 31 g ai/ha,100%
same,pest or weed control at 125 g/ha,[9]; 125 g ai/ha,100%
same,pest or weed control at 62 g/ha,[9],100%
same,pest or weed control at 16 g/ha,[10]; 16 g ai/ha Preemergence,80%
same,pest or weed control at 31 g/ha,[10]; 31 g ai/ha Preemergence,100%
same,pest or weed control at 62 g/ha,[10]; 62 g ai/ha Preemergence,100%
same,pest or weed control at 125 g/ha,[10]; 125 g ai/ha Preemergence,100%
same,pest or weed control at 16 g/ha,[11]; 16 g ai/ha Preemergence,98%
same,pest or weed control at 31 g/ha,[11]; 31 g ai/ha Preemergence,98%
same,pest or weed control at 125 g/ha,[11]; 125 g ai/ha Preemergence,100%
same,pest or weed control at 62 g/ha,[11]; Preemergence,100%
same,pest or weed control at 16 g/ha,[12]; [17],90%
same,pest or weed control at 31 g/ha,[12]; [18],100%
same,pest or weed control at 62 g/ha,[12]; [19],100%
same,pest or weed control at 125 g/ha,[12]; [20],100%
same,pest or weed control at 16 g/ha,[12]; [21],100%
same,pest or weed control at 31 g/ha,[12]; [22],100%
same,pest or weed control at 125 g/ha,[12]; [24],100%
same,pest or weed control at 62 g/ha,"[12]; pre-emergence, Preemergence",100%
same,pest or weed control at 16 g/ha,[13]; [17],10%
same,pest or weed control at 31 g/ha,[13]; [18],15%
same,pest or weed control at 62 g/ha,[13]; [19],20%
same,pest or weed control at 125 g/ha,[13]; [20],20%
same,pest or weed control at 16 g/ha,[13]; [21],0%
same,pest or weed control at 31 g/ha,[13]; [22],10%
same,pest or weed control at 125 g/ha,[13]; [24],95%
same,pest or weed control at 62 g/ha,"[13]; pre-emergence, Preemergence",50%
same,plant injury at 16 g/ha,[14]; [17],65%
same,plant injury at 31 g/ha,[14]; [18],95%
same,plant injury at 62 g/ha,[14]; [19],98%
same,plant injury at 125 g/ha,[14]; [20],95%
same,plant injury at 31 g/ha,[14]; [22],10%
same,plant injury at 125 g/ha,[14]; [24],75%
same,plant injury at 62 g/ha,"[14]; pre-emergence, Preemergence",40%
same,pest or weed control at 16 g/ha,[15]; 16 g ai/ha Preemergence,0%
same,pest or weed control at 31 g/ha,[15]; 31 g ai/ha Preemergence,75%
same,pest or weed control at 125 g/ha,[15]; 125 g ai/ha Preemergence,80%
same,pest or weed control at 62 g/ha,[15]; Preemergence,75%
same,pest or weed control at 16 g/ha,[16]; [17],50%
same,pest or weed control at 31 g/ha,[16]; [18],50%
same,pest or weed control at 62 g/ha,[16]; [19],70%
same,pest or weed control at 125 g/ha,[16]; [20],65%
same,pest or weed control at 16 g/ha,[16]; [21],0%
same,pest or weed control at 31 g/ha,[16]; [22],0%
same,pest or weed control at 125 g/ha,[16]; [24],35%
same,pest or weed control at 62 g/ha,"[16]; pre-emergence, Preemergence",20%
